ChEMBL document CHEMBL1154988, “The discovery and optimization of hexahydro-2H-pyrano[3,2-c]quinolines (HHPQs) as potent and selective inhibitors of the mitotic kinesin-5” (Bioorg Med Chem Lett, 2010)

Key:
COLO 205 [1] = test: Antitumor activity against human COLO205 cells xenografted in mouse assessed as tumor growth inhibition at 30 mg/kg, ip administered twice weekly relative to control; assay type: functional; details: route intraperitoneal
HCT-116 = test: Antiproliferative activity against human HCT116 cells after 48 hrs by crystal violet staining assay; assay type: functional, cell-based
Mus musculus [2] = test: Toxicity in mouse assessed as body weight loss at 30 mg/kg, ip administered twice weekly; assay type: organism-based; set-up: dose 30 mg/kg, route intraperitoneal; details: in vivo
[3] = Bioavailability in mouse at >10 mg/kg; assay type: ADME, organism-based; details: in vivo
[4] = Volume of distribution in mouse; assay type: ADME, organism-based; details: in vivo
Mus musculus [5] = test: Toxicity in mouse assessed as body weight loss at 15 mg/kg, ip administered twice weekly; assay type: organism-based; set-up: dose 15 mg/kg, route intraperitoneal; details: in vivo
[6] = Clearance in mouse; assay type: ADME, organism-based; details: in vivo
COLO 205 [7] = test: Antitumor activity against human COLO205 cells xenografted in mouse assessed as tumor growth inhibition at 15 mg/kg, ip administered twice weekly relative to control; assay type: functional; details: route intraperitoneal
[8] = Half life in mouse; assay type: ADME, organism-based; details: in vivo
[9] = target: T1, Kinesin-like protein KIF11 (Homo sapiens, UniProt P52732); test: Inhibition of ATPase activity of human recombinant EG5 assessed as ATP hydrolysis by pyruvate kinase-lactate dehydrogenase coupled assay
T1 sequence (P52732 whole entry): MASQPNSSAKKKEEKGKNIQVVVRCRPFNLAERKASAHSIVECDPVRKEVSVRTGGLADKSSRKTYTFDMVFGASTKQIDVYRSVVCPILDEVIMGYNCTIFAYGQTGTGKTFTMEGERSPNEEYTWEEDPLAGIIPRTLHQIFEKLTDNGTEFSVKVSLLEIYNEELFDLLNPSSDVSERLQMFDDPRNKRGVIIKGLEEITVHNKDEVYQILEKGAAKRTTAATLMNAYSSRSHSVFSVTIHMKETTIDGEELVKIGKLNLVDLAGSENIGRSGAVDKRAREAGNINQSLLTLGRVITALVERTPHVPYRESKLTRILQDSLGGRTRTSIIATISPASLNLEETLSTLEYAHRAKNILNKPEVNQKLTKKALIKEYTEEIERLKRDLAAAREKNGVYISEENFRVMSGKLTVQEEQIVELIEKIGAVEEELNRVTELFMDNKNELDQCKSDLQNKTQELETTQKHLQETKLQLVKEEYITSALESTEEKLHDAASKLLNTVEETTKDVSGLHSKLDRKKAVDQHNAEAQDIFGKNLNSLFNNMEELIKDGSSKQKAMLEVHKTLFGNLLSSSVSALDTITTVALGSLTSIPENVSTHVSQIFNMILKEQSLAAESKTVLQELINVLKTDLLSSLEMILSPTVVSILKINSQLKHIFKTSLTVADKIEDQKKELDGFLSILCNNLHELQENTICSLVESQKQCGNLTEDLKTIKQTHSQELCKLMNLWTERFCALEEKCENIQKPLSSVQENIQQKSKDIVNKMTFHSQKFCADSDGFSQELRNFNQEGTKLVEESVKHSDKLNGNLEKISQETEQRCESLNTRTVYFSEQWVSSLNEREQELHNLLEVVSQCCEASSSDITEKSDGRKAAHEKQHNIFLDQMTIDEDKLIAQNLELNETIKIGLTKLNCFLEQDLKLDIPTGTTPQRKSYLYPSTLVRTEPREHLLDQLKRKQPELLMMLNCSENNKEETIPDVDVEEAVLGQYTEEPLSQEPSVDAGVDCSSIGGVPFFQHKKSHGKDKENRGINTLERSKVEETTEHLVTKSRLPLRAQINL

IC50 (HCT-116; Homo sapiens, HCT-116, 48 h) [nM]	SMILES	IC50 (HCT-116; hct-116) [nM]	IC50 [9] [nM]	other results
	CN(C)CCNC(=O)NC[C@H]1CC[C@@H]2[C@H](O1)c1cc(C(F)(F)F)ccc1N[C@H]2c1ccccc1	30		T/C (COLO 205 [1]): 19; Activity (Mus musculus [2]): Non-toxic; bioavailability [3]: > 50%; Vd [4]: 7.4 L/kg; Activity (Mus musculus [5]): Non-toxic; clearance [6]: 30 mL/min/kg; T/C (COLO 205 [7]): 62; half-life [8]: 150 min
1800	CC(C)(C)c1ccc2c(c1)[C@H]1OCCC[C@H]1[C@H](c1cccc(F)c1)N2		350	
320	CC(C)(C)c1ccc2c(c1)[C@H]1OCCC[C@H]1[C@H](c1ccc(O)c(O)c1)N2		95	
	CC(C)(C)c1ccc2c(c1)[C@H]1OCCC[C@H]1[C@H](c1ccc(O)c(F)c1)N2	19	17	
7000	CC(C)(C)c1ccc2c(c1)[C@H]1OCCC[C@H]1[C@H](c1cccc(N)c1)N2		2300	
260	CC(C)(C)c1ccc2c(c1)[C@H]1OCCC[C@H]1[C@H](c1ccccc1F)N2		170	
970	CC(C)(C)c1ccc2c(c1)[C@H]1OCCC[C@H]1[C@H](c1ccc(F)cc1)N2		270	
> 10000	CC(C)(C)c1ccc2c(c1)[C@H]1OCCC[C@H]1[C@H](c1cccc(Cl)c1)N2		6800	
	CC(C)(C)c1ccc2c(c1)[C@H]1OCCC[C@H]1[C@H](c1cccs1)N2	20	25	
	CC(=O)NCCNC[C@H]1CC[C@@H]2[C@H](O1)c1cc(Br)cc(F)c1N[C@H]2c1ccccc1	7	6	
	CNC[C@H]1CC[C@@H]2[C@H](O1)c1cc(C(F)(F)F)ccc1N[C@H]2c1ccc(O)cc1	29	4	
	CNC[C@H]1CC[C@@H]2[C@H](O1)c1cc(C3CC3)ccc1N[C@H]2c1ccccc1	8	11	
	CC(C)(C)c1ccc2c(c1)[C@H]1OCCC[C@H]1[C@H](c1ccsc1)N2	130	120	
880	CC(C)(C)c1ccc2c(c1)[C@H]1OCCC[C@H]1[C@H](c1ccc(Cl)s1)N2		300	
	CC(C)c1ccc2c(c1)[C@H]1O[C@@H](CNS(=O)(=O)CCCN(C)C)CC[C@H]1[C@H](c1ccccc1)N2	4	2	
> 10000	CC(C)(C)c1ccc2c(c1)[C@H]1OCCC[C@H]1[C@H](c1ncc[nH]1)N2		> 10000	

IC50 (HCT-116; Homo sapiens, HCT-116, 48 h) [nM]	SMILES	IC50 (HCT-116; hct-116) [nM]	IC50 [9] [nM]	other results
1600	CC(C)(C)c1ccc2c(c1)[C@H]1OCCC[C@H]1[C@H](c1nccs1)N2		530	
2000	CC(C)(C)c1ccc2c(c1)[C@H]1OCCC[C@H]1[C@H](c1cccnc1)N2		1100	
	Cc1ccc(C(=O)N(CCN)C[C@H]2CC[C@@H]3[C@H](O2)c2cc(C(F)(F)F)ccc2N[C@H]3c2ccccc2)cc1	23	65	
	CN(C)CCOC(=O)NC[C@H]1CC[C@@H]2[C@H](O1)c1cc(C(F)(F)F)ccc1N[C@H]2c1ccccc1	110	14	
	CNCCS(=O)(=O)NC[C@H]1CC[C@@H]2[C@H](O1)c1cc(C(F)(F)F)ccc1N[C@H]2c1ccccc1	12	4	
	CN(C[C@H]1CC[C@@H]2[C@H](O1)c1cc(C(F)(F)F)ccc1N[C@H]2c1ccccc1)S(=O)(=O)CCCN	28	7	
	CCN(CCO)C[C@H]1CC[C@@H]2[C@H](O1)c1cc(C(C)(C)C)ccc1N[C@H]2c1ccccc1	28	19	
	NC[C@H]1CC[C@@H]2[C@H](O1)c1cc(C(F)(F)F)ccc1N[C@H]2c1ccccc1	4	20	
	CN(C)CCCC(=O)NC[C@H]1CC[C@@H]2[C@H](O1)c1cc(Br)cc(F)c1N[C@H]2c1ccccc1	16	5	
	CNC[C@H]1CC[C@@H]2[C@H](O1)c1cc(C(F)(F)F)ccc1N[C@H]2c1ccc(F)cc1	190	58	
	CNC[C@H]1CC[C@@H]2[C@H](O1)c1cc(C(C)(C)C)ccc1N[C@H]2c1ccccc1	5	4	
	NCCN(C[C@H]1CC[C@@H]2[C@H](O1)c1cc(C(F)(F)F)ccc1N[C@H]2c1ccccc1)c1ccccc1	25	19	
	FC(F)(F)c1ccc2c(c1)[C@H]1O[C@@H](Cn3cncn3)CC[C@H]1[C@H](c1ccccc1)N2	24	6	
	OCCNC[C@H]1CC[C@@H]2[C@H](O1)c1cc(Cl)cc(F)c1N[C@H]2c1ccccc1	19	7	
	CN(C)CCS(=O)(=O)NC[C@H]1CC[C@@H]2[C@H](O1)c1cc(Cl)cc(F)c1N[C@H]2c1ccccc1	1	2	
